Consider two molecules from patent US7803842B2, “Choline esters useful for the treatment of cognitive dysfunctions and enhancement of memory, learning and cognition” (priority 2004, dated 2010).

Data set [1] relates to scopolamine impaired rats. Briefly: Water maze hidden platform task in scopolamine impaired rats. It counts as in vivo, Long Evans rats. The settings on record: for Hidden platform task performance (latency, swim path length) vs saline controls; reversal of scopolamine effect: donepezil 0.75 mg/kg p.o. daily with scopolamine 0.1 mg/kg i.p., test days 3 and 4, hydrochloride. The protocol: (§1) Male Long-Evans rats (3 months of age) were administered either saline, donepezil (0.75 mg/kg), or PP-100 (3.0 mg/kg or 40.0 mg/kg) by oral gavage for 10 days prior to (and during the 5 days of) testing in a water maze task. The compounds were evaluated for their ability to reverse the amnestic effects of scopolamine (0.1 mg/kg) in this task.
The animals were randomly assigned to one of 5 groups (n=10/group) and administered one daily dose of either of two doses of the choline derivative PP-100 (3 or 40 mg/kg), donepezil HCL (0.75 mg/kg), or vehicle (0.9% saline), via oral gavage (p.o.) beginning ten days prior to initiation of the water maze task. Daily dosing continued through the initial day of visible platform testing and the subsequent five days of water maze testing (i.e., on hidden platform test days as well as probe trial days). On both the single day of pre-testing (Visible Platform Test) as well as on each day of watermaze testing, thirty minutes prior to the first trial, 0.1 mg/kg of scopolamine hydrobromide was administered i.p. to four of the five groups (i.e., excluding the saline-saline group). Fifteen minutes after the scopolamine injection (or vehicle) each group was dosed with one of the test articles or vehicle (see Table 1 for an overview of the testing protocol). Test articles were prepared according to the supplied instructions, and aliquots of the solutions were stored (at −20° C.). Test agents were freshly thawed at the time of use.
In order to test and compare the effects of PP-100 on both acquisition and recall of spatial memories, the water maze hidden platform task was utilized. […] Scopolamine is known to impair performance in the water maze task, and blockage of scopolamine effects is known to reduce impairment in the water maze (e.g., Terry et al., Drug Dev. Res., 47:97 (1999).
The water maze experiment was performed in a circular pool (diameter=180 cm, height=76 cm) made of black plastic. The pool was filled with water to a depth of 35 cm and the water was maintained at 25.0±1.0° C. The pool was located in a large room with a number of extra-maze visual cues including geometric images (squares, triangles, circles etc.) hung on the wall, diffuse lighting, and black curtains used to hide the experimenter (visually) and the resting test subjects. Swimming activity of each rat was monitored via a television camera mounted overhead, which relayed information including latency to find the platform, total distance traveled, time and distance spent in each quadrant etc. to a video tracking system (Actimetrics, Evanston, Ill.).
For the water maze test itself, the escape platform was submerged. […]

Data set [2] concerns scopolamine impaired rats. The data set is described as follows: Water maze visible platform task (pre-test) in scopolamine impaired rats. It counts as in vivo, Long Evans rats. As to conditions: scopolamine 0.1 mg/kg i.p.; hydrobromide. The protocol: as §1
The animals were randomly assigned to one of 5 groups (n=10/group) and administered one daily dose of either of two doses of the choline derivative PP-100 (3 or 40 mg/kg), donepezil HCL (0.75 mg/kg), or vehicle (0.9% saline), via oral gavage (p.o.) beginning ten days prior to initiation of the water maze task. Daily dosing continued through the initial day of visible platform testing and the subsequent five days of water maze testing (i.e., on hidden platform test days as well as probe trial days). […]
The water maze experiment was performed in a circular pool (diameter=180 cm, height=76 cm) made of black plastic. […] Swimming activity of each rat was monitored via a television camera mounted overhead, which relayed information including latency to find the platform, total distance traveled, time and distance spent in each quadrant etc. to a video tracking system (Actimetrics, Evanston, Ill.). […]

Entries after “also recorded” stand apart in the source; their conditions may differ. Structures can show the parent of a compound that is named as a salt.

As to `COc1cc2c(cc1OC)C(=O)C(CC1CCN(Cc3ccccc3)CC1)C2` (racemic) [donepezil, (±)-2-[(1-benzyl-4-piperidyl)methyl]-5,6-dimethoxy-1-indanone hydrochloride], the “Hidden platform task performance (latency, swim path length) vs saline controls; reversal of scopolamine effect” value in data set [1] was “did not differ (statistically) from saline controls”; in data set [1] (listed as Donepezil) it was “appeared to at least partially reverse the effects of scopolamine”. In addition, the “Hidden platform task performance vs saline controls” value in data set [1] (with scopolamine 0.1 mg/kg i.p., donepezil 0.75 mg/kg or PP-100 3 or 40 mg/kg p.o., test days 1 and 2) was “generally performed less efficiently than saline controls”.

In the case of `CN1[C@@H]2C[C@@H](OC(=O)[C@H](CO)c3ccccc3)C[C@H]1[C@@H]1O[C@@H]12` [scopolamine, scopolamine hydrobromide], the “Effect on learning in the hidden platform task (latency, swim distance)” value in data set [1] (scopolamine 0.1 mg/kg i.p. 30 minutes before first trial) was “impaired learning”. Further, the “Effect on ability to locate a highly visible platform” value in data set [2] is “tended to produce impairment; also recorded: led to some impairment”.
